Consider seven compounds from patent publication US20260176262A1, “KRAS INHIBITORS, PREPARATION METHOD THEREFOR, AND PHARMACEUTICAL USE THEREOF” (ABBISKO THERAPEUTICS CO., LTD., priority 2021, published 2026).

One data set deals with KRAS^G12D/cRAF (Homo sapiens, UniProt P01116, G12D). Put plainly: KRAS G12D/cRAF binding test (Alphalisa). Conditions: His-tagged KRAS G12D + GMPPNP, GST-tagged cRAF. In a few lines: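 His-tagged KRAS G12D loaded with GMPPNP was incubated with compound (8-point 3-fold series from 5 mM DMSO stock) and then GST-cRAF for 15 min at room temperature. AlphaLISA detection followed after 60 min. IC50 came from a four-parameter fit of signal ratios against the DMSO control.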
In general terms: In Alpha technology, singlet oxygen from a donor bead excites a nearby acceptor bead.

Data set [1] is described as follows: Pharmacokinetic experiment in mice. Conditions: male, ICR, mouse, plasma.
Experimental: ICR mice male N=3 original source: Shanghai Sippr-Bk Lab Animal Co., Ltd.
Single oral (PO) administration in ICR mice: The compounds were weighed and added to the solvent of 0.5% CMC+1% Tween 80 respectively, well shaken, and ultrasonicated to get a light yellow suspension. 3 mice were administered orally after fasting overnight. The dose was 10 mg/kg.
About 90 μL/timepoint blood was collected through the orbital cavity, anticoagulated with sodium heparin, placed on ice after collection, and centrifuged to separate the plasma within 1 hour (centrifugation conditions: 8000 rpm, 6 m 2-8C). The blood collection timepoints were 0, 0.25, 0.5, 1, 2, 4, 6, 8 and 24 h. The samples were stored in a −20° C. refrigerator.
The plasma sample was 40 μL, 160 μL of ice-cold acetonitrile containing internal standard was added, vortexed for 1 minute, and centrifuged at 18,000 rpm for 10 minutes. The supernatant was transferred to a 96-well plate, and 5 μL was injected into LC-MS/MS for analysis.
The test system of a further data set is AGS cell. Put plainly: Anti-proliferative 2D CTG assay, AGS cells. The data set is classed as cell-based. The conditions noted are these: Homo sapiens, 72 h, AGS cells, incubated 3 days, CTG, read-out: AGS cell IC50. In short, it runs like this:
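Cells seeded at 1000/well overnight, then treated with 10-point 1:5 dilutions ([…], 0.1% DMSO) for 3 days at 37° C. Viability read by CellTiter-Glo luminescence; % inhibition versus HPE/ZPE controls, IC50 from four-parameter fit.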

Like-named read-outs stand apart in the source and are kept apart here.

Sequence of KRAS^G12D/cRAF (P01116 1-188 isoform P01116-2 G12D): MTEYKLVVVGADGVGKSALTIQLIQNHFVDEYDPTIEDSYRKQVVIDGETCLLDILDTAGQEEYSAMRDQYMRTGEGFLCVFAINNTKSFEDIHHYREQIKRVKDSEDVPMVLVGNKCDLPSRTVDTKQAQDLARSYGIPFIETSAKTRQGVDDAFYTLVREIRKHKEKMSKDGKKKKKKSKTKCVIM

The IC50 is the point on the concentration scale where inhibition reaches its midpoint. As usually defined, the AUC(0-t) is the area under the concentration-time curve up to a stated or last time point. A lower AUC(0-t) goes with low exposure. As a reminder, the half-life is the time needed for the level to fall by half in the phase considered. A high value points to slow loss. For `[2H]C([2H])([2H])OCC12CCC(CN(c3nc(OC[C@@]45CCCN4C[C@H](F)C5)nc4c(F)c(-c5cc(O)cc6ccc(F)c(C#C)c56)ncc34)C1)N2` (stereo partly drawn) [Example 2, 5-ethynyl-6-fluoro-4-(8-fluoro-2-(((2R,7aS)-2-fluorotetrahydro-1H-pyrrolizin-7a(5H)-yl)methoxy)-4-(1-((methoxy-d3)methyl)-3,8-diazabicyclo [3.2.1]octan-3-yl)pyrido[4,3-d]pyrimidin-7-yl)naphthalen-2-ol], the IC50 on KRAS^G12D/cRAF (class symbols) was 50 to 500 nM. Also, in data set [1] (po, 10 mg/kg), the AUC(0-t) turned out to be 602 ng·h/mL and the half-life was 498 min. In addition, the IC50 in the data set with AGS cell (class symbols) is under 50 nM.
Consider `C#Cc1c(F)ccc2cc(O)cc(-c3ncc4c(N5CC6CCC(C=C)(C5)N6)nc(OC[C@@]56CCCN5C[C@H](F)C6)nc4c3F)c12` (stereo partly drawn) [Example 5, 5-ethynyl-6-fluoro-4-(8-fluoro-2-(((2R,7aS)-2-fluorotetrahydro-1H-pyrrolizin-7a(5H)-yl)methoxy)-4-(1-vinyl-3,8-diazabicyclo[3.2.1]octan-3-yl)pyrido[4,3-d]pyrimidin-7-yl)naphthalen-2-ol], for which the IC50 at KRAS^G12D/cRAF (numeric values) came to 72 nM. Further, in data set [1] (po, 10 mg/kg), the AUC(0-t) was determined as 489 ng·h/mL and the half-life is 378 min. Moreover, the IC50 with AGS cell (numeric values) came to 15 nM.
Turning to `C#Cc1c(F)ccc2cc(O)cc(-c3ncc4c(N5CC6CCC(C(C)OC)(C5)N6)nc(OC[C@@]56CCCN5C[C@H](F)C6)nc4c3F)c12` (stereo partly drawn) [Example 12, 5-ethynyl-6-fluoro-4-(8-fluoro-2-(((2R,7aS)-2-fluorotetrahydro-1H-pyrrolizin-7a(5H)-yl)methoxy)-4-(1-(1-methoxyethyl)-3,8-diazabicyclo[3.2.1]octan-3-yl)pyrido[4,3-d]pyrimidin-7-yl) naphthalen-2-ol], the half-maximal inhibitory concentration (IC50) on KRAS^G12D/cRAF (class symbols) was 50 to 500 nM. In data set [1] (po, 10 mg/kg), this compound had an AUC(0-t) of 1740 ng·h/mL and a half-life of 432 min. For the same compound, the IC50 in the data set with AGS cell (class symbols) was under 50 nM.
As a reminder, the bioavailability is dose-corrected exposure relative to a reference, in per cent. In data set [1] (iv, 2 mg/kg), `[2H]C([2H])([2H])OC[C@]12CC[C@H](CN(c3nc(OC[C@@]45CCCN4C[C@H](F)C5)nc4c(F)c(-c5cc(O)cc6ccc(F)c(C#C)c56)nc(OCC)c34)C1)N2` [Example 51, 4-(5-ethoxy-8-fluoro-2-(((2R,7aS)-2-fluorotetrahydro-1H-pyrrolizin-7a(5H)-yl)methoxy)-4-((1S,5R)-1-((methoxy-d3)methyl)-3,8-diazabicyclo[3.2.1]octan-3-yl)pyrido[4,3-d]pyrimidin-7-yl)-5-ethynyl-6-fluoronaphthalen-2-ol] showed an area under the curve AUC(0-t) of 1570 ng·h/mL and a half-life of 324 min. In data set [1] (po, 10 mg/kg), this compound had an AUC(0-t) of 1120 ng·h/mL, a bioavailability of 28% and a half-life of 372 min.
In data set [1] (po, 10 mg/kg), `C#Cc1c(F)ccc2cc(O)cc(-c3ncc4c(N5C[C@H]6CC[C@@](CCF)(C5)N6)nc(OC[C@@]56CCCN5C[C@H](F)C6)nc4c3F)c12` [Example 55, 5-ethynyl-6-fluoro-4-(8-fluoro-4-((1R,5R)-1-(2-fluoroethyl)-3,8-diazabicyclo[3.2.1]octan-3-yl)-2-(((2R,7aS)-2-fluorotetrahydro-1H-pyrrolizin-7a(5H)-yl)methoxy)pyrido[4,3-d]pyrimidin-7-yl)naphthalen-2-ol] had an area under the curve AUC(0-t) of 296 ng·h/mL and a half-life of 444 min. Moreover, the half-maximal inhibitory concentration (IC50) in the data set with AGS cell (class symbols) lay in the range of 50 to 500 nM.
`C#Cc1c(F)ccc2cc(O)cc(-c3ncc4c(N5C[C@@H]6CC[C@](/C=C/F)(C5)N6)nc(OC[C@@]56CCCN5C[C@H](F)C6)nc4c3F)c12` [Example 62, 5-ethynyl-6-fluoro-4-(8-fluoro-2-(((2R,7aS)-2-fluorotetrahydro-1H-pyrrolizin-7a(5H)-yl)methoxy)-4-((1S,5S)-1-((E)-2-fluorovinyl)-3,8-diazabicyclo[3.2.1]octan-3-yl)pyrido[4,3-d]pyrimidin-7-yl)naphthalen-2-ol]: the IC50 at KRAS^G12D/cRAF (numeric values) was determined as 18 nM; in the data set with AGS cell (numeric values), 27 nM.
`C#Cc1c(F)ccc2cc(O)cc(-c3ncc4c(N5CC6CCC(C5)N6)nc(OC[C@@]56CCCN5C[C@H](F)C6)nc4c3F)c12` [Positive Compounds, reference compound]: in data set [1] (iv, 2 mg/kg), the AUC(0-t) came to 337 ng·h/mL and the half-life is 186 min. In data set [1] (po, 10 mg/kg), this compound showed an exposure AUC(0-t) of 40 ng·h/mL, a bioavailability of 2.4% and a half-life of 96 min.
